Data: patent US10131652B2, “Pyrimidinyloxy benzene derivatives as herbicides” (E. I. DU PONT DE NEMOURS AND COMPANY, priority 2014, dated 2018)

Columns and labels:
Assay type in all cases: in vivo
[1] = system: giant foxtail (Setaria faberii); experiment: Test B pre-/postemergence plant response
Source text: (§1) Seeds of plant species selected from bamyardgrass (Echinochloa crus-galli), kochia (Kochia scoparia), ragweed (common ragweed, Ambrosia elatior), Italian ryegrass (Lolium multiflorum), large (Lg) crabgrass (Digitaria sanguinalis), giant foxtail (Setaria faberii), momingglory (Ipomoea spp.), pigweed (Amaranthus retroflexus), velvetleaf (Abutilon theophrasti), wheat (Triticum aestivum), and corn (Zea mays) were planted into a blend of loam soil and sand and treated preemergence with a directed soil spray using test chemicals formulated in a non-phytotoxic solvent mixture which included a surfactant. At the same time, plants selected from these crop and weed species and also blackgrass (Alopecurus myosuroides), and galium (catchweed bedstraw, Galium aparine) were planted in pots containing the same blend of loam soil and sand and treated with postemergence applications of test chemicals formulated in the same manner. Plants ranged in height from 2 to 10 cm and were in the one- to two-leaf stage for the postemergence treatment. Treated plants and untreated controls were maintained in a greenhouse for approximately 10 days, after which time all treated plants were compared to untreated controls and visually evaluated for injury. Plant response ratings, summarized in Table B, are based on a 0 to 100 scale where 0 is no effect and 100 is complete control. A dash (-) response means no test result.

[2] = system: pigweed (Amaranthus retroflexus); experiment: Test B pre-/postemergence plant response
Source text: as §1

[3] = system: wheat (Triticum aestivum); experiment: Test B pre-/postemergence plant response; settings: 0 to 100 scale (0 no effect, 100 complete control)
Source text: as §1

[4] = system: Italian ryegrass (Lolium multiflorum); experiment: Test B pre-/postemergence plant response; settings: 500 g ai/ha
Source text: as §1

corn (Zea mays) = experiment: Test B pre-/postemergence plant response; settings: 0 to 100 scale (0 no effect, 100 complete control)
Source text: as §1

kochia (Kochia scoparia) = experiment: Test B pre-/postemergence plant response; settings: 500 g ai/ha
Source text: as §1

[5] = system: barnyardgrass (Echinochloa crus-galli); experiment: Test B pre-/postemergence plant response
Source text: as §1

[6] = system: ragweed (common ragweed, Ambrosia elatior); experiment: Test B pre-/postemergence plant response; settings: 500 g ai/ha
Source text: as §1

[7] = system: blackgrass (Alopecurus myosuroides); experiment: Test B postemergence plant response; settings: Postemergence, 500 g ai/ha; 0 to 100 scale (0 no effect, 100 complete control)
Source text: (§2) At the same time, plants selected from these crop and weed species and also blackgrass (Alopecurus myosuroides), and galium (catchweed bedstraw, Galium aparine) were planted in pots containing the same blend of loam soil and sand and treated with postemergence applications of test chemicals formulated in the same manner. Plants ranged in height from 2 to 10 cm and were in the one- to two-leaf stage for the postemergence treatment. Treated plants and untreated controls were maintained in a greenhouse for approximately 10 days, after which time all treated plants were compared to untreated controls and visually evaluated for injury. Plant response ratings, summarized in Table B, are based on a 0 to 100 scale where 0 is no effect and 100 is complete control. A dash (-) response means no test result.

[8] = system: galium (catchweed bedstraw, Galium aparine); experiment: Test B postemergence plant response; settings: Postemergence, 500 g ai/ha; 0 to 100 scale (0 no effect, 100 complete control)
Source text: as §2

[9] = system: velvetleaf (Abutilon theophrasti); experiment: Test B pre-/postemergence plant response; settings: 1000 g ai/ha, 0 to 100 scale (0 no effect, 100 complete control)
Source text: as §1

[10] = system: large (Lg) crabgrass (Digitaria sanguinalis); experiment: Test B pre-/postemergence plant response; settings: 1000 g ai/ha, 0 to 100 scale (0 no effect, 100 complete control)
Source text: as §1

[11] = system: morningglory (Ipomoea spp.); experiment: Test B pre-/postemergence plant response; settings: 1000 g ai/ha, 0 to 100 scale (0 no effect, 100 complete control)
Source text: as §1

[12] = Postemergence, 500 g ai/ha, 0 to 100 scale (0 no effect, 100 complete control)
[13] = Preemergence, 500 g ai/ha, 0 to 100 scale where 0 is no effect and 100 is complete control
[14] = Postemergence, 0 to 100 scale (0 no effect, 100 complete control)
[15] = Preemergence, 0 to 100 scale where 0 is no effect and 100 is complete control
[16] = Postemergence, 1000 g ai/ha, 0 to 100 scale (0 no effect, 100 complete control)
[17] = Preemergence, 1000 g ai/ha, 0 to 100 scale (0 no effect, 100 complete control)

| Compound | Plant response rating, Velvetleaf ([9]; Postemergence) | Plant response rating, Velvetleaf ([9]; Preemergence) | Plant response rating, Crabgrass, Large ([10]; Postemergence) | Plant response rating, Crabgrass, Large ([10]; Preemergence) | Plant response rating, Morningglory ([11]; Postemergence) | Plant response rating, Morningglory ([11]; Preemergence) | Plant response rating, Foxtail, Giant [1, 16] | Plant response rating, Foxtail, Giant [1, 17] | Plant response rating, Pigweed [2, 16] | Plant response rating, Pigweed [2, 17] | Plant response rating, Wheat ([3]; Postemergence, 1000 g ai/ha) | Plant response rating, Wheat ([3]; Preemergence, 1000 g ai/ha) | Plant response rating, Corn (corn (Zea mays); Postemergence, 1000 g ai/ha) | Plant response rating, Corn (corn (Zea mays); Preemergence, 1000 g ai/ha) | Plant response rating, Barnyardgrass [5, 16] | Plant response rating, Barnyardgrass [5, 17] | further results |
| --- | --- | --- | --- | --- | --- | --- | --- | --- | --- | --- | --- | --- | --- | --- | --- | --- | --- |
| ON=Cc1cc(-c2ccccc2Oc2ncc(Cl)cn2)no1 [Compound 37] | – | – | – | – | – | – | – | – | – | – | – | – | – | – | – | – | Plant response rating, Foxtail, Giant [1, 12]: 10; Plant response rating, Foxtail, Giant [1, 13]: 0; Plant response rating, Pigweed [2, 12]: 20; Plant response rating, Pigweed [2, 13]: 40; Plant response rating, Wheat ([3]; Postemergence, 500 g ai/ha): 0; Plant response rating, Ryegrass, Italian [4, 14]: 0; Plant response rating, Ryegrass, Italian [4, 15]: 0; Plant response rating, Corn (corn (Zea mays); Postemergence, 500 g ai/ha): 0; Plant response rating, Kochia (kochia (Kochia scoparia); [14]): 0; Plant response rating, Kochia (kochia (Kochia scoparia); [15]): 0; Plant response rating, Barnyardgrass [5, 12]: 0; Plant response rating, Barnyardgrass [5, 13]: 0; Plant response rating, Ragweed [6, 14]: 0; Plant response rating, Ragweed [6, 15]: 0; Plant response rating, Blackgrass [7]: 0; Plant response rating, Galium [8]: 0 |
| Clc1cnc(Oc2ccccc2-c2cncs2)nc1 [Compound 9] | 40 | 10 | 50 | 70 | 50 | 0 | 20 | 60 | 60 | 90 | 10 | 0 | 10 | 0 | 10 | 20 | – |
| Clc1cnc(Oc2ccccc2-c2ncc(Cl)cn2)nc1 [Compound 3] | 100 | 90 | 10 | 40 | 60 | 0 | 20 | 70 | 70 | 50 | 10 | 0 | 10 | 0 | 50 | 60 | – |
| Brc1cnc(Oc2ccccc2-c2nnco2)nc1 [Compound 5] | 30 | 20 | 0 | 0 | 20 | 0 | 0 | 0 | 70 | 90 | 0 | 0 | 0 | 0 | 20 | 0 | – |
| Clc1cnc(Oc2ccccc2-c2nnco2)nc1 [Compound 6] | 30 | 20 | 20 | 0 | 20 | 0 | 0 | 0 | 70 | 70 | 0 | 0 | 0 | 0 | 0 | 0 | – |
